This is an account of results in patent US20240327417A1, “HETEROCYCLIC COMPOUNDS” (BeiGene Switzerland GmbH, priority 2021, published 2024).

In experiment [1] the target is T1, Full length DGKα (D21-10BG, SignalChem) (Homo sapiens, UniProt P23743).
T1 construct: Full length DGKα (D21-10BG, SignalChem); purchased SignalChem D21-10BG
In words: Biochemical DGK IC50 assay (ADP-Glo, lipid micelle substrate), DGKα. The conditions noted are these: 7.5 nM enzyme, 140 μM ATP, 80 μM DAG, 1 hour preincubation, 1 hour reaction, room temperature, read-out: IC50s for DGKα. Here is the method: (§1) Enzymatic reactions of DGKζ, DGKα and DGKδ were performed using ADP-Glo assay with lipid micelle substrate. […] Full length DGKα (D21-10BG, SignalChem) and full length DGKδ (D23-10G, SignalChem) were purchased. Lipid micelle was prepared by dissolving DAG (Sigma, 317505-10MG) and PS (Sigma, P7769-100MG) with chloroform which was firtherly removed by rotary evaporation. The obtained residue was resuspended in buffer containing 25 mM HEPES pH 7.0, 0.5 mM EDTA and 160 mM Octyl β-D glucopyranoside by vigorous mixing and ultrasonic (IID, Scientz).
(§2) The inhibition activities testing for the compound disclosed herein were carried out at room temperature in assay buffer containing 50 mM HEPES, 10 mM MgCl2, 0.01% BSA, 0.1 mM Na3VO4, 0.005% Tween-20 and 0.01 mM CaCl2. Compounds in DMSO were dispensed into wells of a black 384 well plate (Corning 4514) using D300e digital dispenser (Tecan). The ranges of compounds final concentration were 1.55˜10000 nM or 23.3˜150000 nM. 3 μL 2× enzyme solution was added to wells. […] After 1 hour reaction, 5 μL ADP-Glo reagent (Promga V9101) was added and incubated for 40 minutes. 10 μL Kinase Detection reagent was added and incubated for 30 minutes. Luminescence was measured on a microplate reader (PHERAstar FSX, BMG labtech). The IC50s are calculated based on inhibition of enzyme activity in the presence of increasing concentrations of compounds.
Background: In ADP-Glo the light output rises with the ADP produced.

The target in experiment [2] is T2, Full length DGKζ (in-house protein M1-V929) (Homo sapiens, UniProt Q13574).
T2 construct: His (N); TEV cleavage site (N); made in house; host or cells: Sf9 insect cells (baculovirus, Bac-to-Bac)
T2 sequence (Q13574 1-929 isoform Q13574-4): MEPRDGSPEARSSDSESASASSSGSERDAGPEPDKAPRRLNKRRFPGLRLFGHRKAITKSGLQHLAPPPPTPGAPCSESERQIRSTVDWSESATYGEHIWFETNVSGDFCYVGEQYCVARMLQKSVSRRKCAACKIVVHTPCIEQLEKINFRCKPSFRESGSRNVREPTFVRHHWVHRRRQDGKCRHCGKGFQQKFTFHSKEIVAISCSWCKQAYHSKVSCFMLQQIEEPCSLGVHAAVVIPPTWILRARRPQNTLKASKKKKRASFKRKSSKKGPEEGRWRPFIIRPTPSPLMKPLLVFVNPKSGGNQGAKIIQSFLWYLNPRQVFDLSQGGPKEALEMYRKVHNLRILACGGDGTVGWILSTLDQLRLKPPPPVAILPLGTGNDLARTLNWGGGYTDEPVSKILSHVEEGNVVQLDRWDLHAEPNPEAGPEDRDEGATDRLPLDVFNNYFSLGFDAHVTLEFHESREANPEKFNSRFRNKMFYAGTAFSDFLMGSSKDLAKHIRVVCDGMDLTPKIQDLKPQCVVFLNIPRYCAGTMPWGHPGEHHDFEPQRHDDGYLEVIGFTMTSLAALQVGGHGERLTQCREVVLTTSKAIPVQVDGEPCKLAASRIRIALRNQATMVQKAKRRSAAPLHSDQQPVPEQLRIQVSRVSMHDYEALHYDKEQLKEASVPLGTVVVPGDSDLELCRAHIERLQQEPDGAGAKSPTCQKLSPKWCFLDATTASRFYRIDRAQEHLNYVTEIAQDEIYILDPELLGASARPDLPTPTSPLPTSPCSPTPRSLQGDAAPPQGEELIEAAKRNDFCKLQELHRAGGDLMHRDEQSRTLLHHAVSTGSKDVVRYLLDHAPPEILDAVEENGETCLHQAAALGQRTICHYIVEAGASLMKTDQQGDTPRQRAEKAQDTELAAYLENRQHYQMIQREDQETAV
In words: Biochemical DGK IC50 assay (ADP-Glo, lipid micelle substrate), DGKζ. The settings on record: 0.5 nM enzyme, 140 μM ATP, 80 μM DAG, 1 hour preincubation, 1 hour reaction, room temperature, read-out: IC50s for DGKζ. As for the experimental part:
as §1, §2
Human His-TEV-DGK-zeta-pFastBac1 and human baculovirus samples was generated using the Bac-to-Bac baculovirus expression system (Invitrogen) according to the manufacturer's protocol. The DNA used for expression of DGK-zeta, have SEQ ID Nos: 1. Baculovirus amplification was achieved using infected SF9 cells at 1:2000 virus/cells ratios, and grown for 96 hours at 27° C. post-transfected.
The expression scaled up for each protein was carried out in the […] from CORNING. 4 L of 3×10^6 cells/mL Sf9 cells (Expression System, Invitrogen) grown in SF900™ II SFM insect medium (Expression System) was infected with virus stock at 1:200 virus/cells ratio, and grown for 48 hours at 27° C. post-transfection. The infected cell culture was harvested by centrifugation at 6000 rpm for 15 min 4° C. in a SORVALL LYNX6000 centrifuge. The cell pellets were stored at −80° C.
Full length human DGKζ produced as described above, was purified from Sf9 baculovirus-infected insect cell paste. The cells were lysed using sonication method, and the lysates were clarified by centrifugation.

T1 sequence (P23743 whole entry): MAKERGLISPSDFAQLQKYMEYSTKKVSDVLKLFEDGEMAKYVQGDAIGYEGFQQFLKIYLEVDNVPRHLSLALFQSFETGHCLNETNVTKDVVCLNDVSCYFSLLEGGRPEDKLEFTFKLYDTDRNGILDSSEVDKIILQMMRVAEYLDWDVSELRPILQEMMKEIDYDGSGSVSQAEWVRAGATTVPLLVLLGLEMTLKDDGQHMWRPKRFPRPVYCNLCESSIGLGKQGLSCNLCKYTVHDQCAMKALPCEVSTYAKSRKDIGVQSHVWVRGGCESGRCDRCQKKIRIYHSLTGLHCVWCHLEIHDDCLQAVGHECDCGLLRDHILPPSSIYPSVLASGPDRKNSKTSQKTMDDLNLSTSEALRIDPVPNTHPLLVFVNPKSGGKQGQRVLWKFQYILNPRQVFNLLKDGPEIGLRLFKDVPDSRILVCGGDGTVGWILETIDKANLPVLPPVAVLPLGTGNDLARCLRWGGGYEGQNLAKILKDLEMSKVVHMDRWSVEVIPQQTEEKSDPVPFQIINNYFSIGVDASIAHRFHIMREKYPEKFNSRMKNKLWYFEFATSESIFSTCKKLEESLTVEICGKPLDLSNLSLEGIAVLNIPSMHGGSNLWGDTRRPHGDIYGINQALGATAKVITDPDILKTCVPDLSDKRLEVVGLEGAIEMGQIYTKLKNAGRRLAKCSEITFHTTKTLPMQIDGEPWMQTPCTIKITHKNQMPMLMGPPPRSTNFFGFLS

With `CC[C@H]1CN(C(C)c2ccc(OC)cn2)[C@H](CC)CN1c1cc(=O)n(C)n2cc(CC#N)nc12` (stereo partly drawn) [Compound A48, 2-(8-((2S,5R)-2,5-diethyl-4-(1-(5-methoxypyridin-2-yl)ethyl)piperazin-1-yl)-5-methyl-6-oxo-5,6-dihydroimidazo[1,2-b]pyridazin-2-yl)acetonitrile], the IC50 in experiment [1] is 30 nM; in experiment [2], 445 nM.
With `CC[C@H]1CN(C(C)c2ccc(C(F)(F)F)cc2F)[C@H](CC)CN1c1cc(=O)n(C)n2cc(CC#N)nc12` (single isomer, unassigned) [Compound A92b], the figures for the IC50 in experiment [1] and in experiment [2] were 803 nM and 1610 nM, respectively.
As for `[2H]C([2H])([2H])c1nc2ccc(C(C)N3C[C@H](CC)N(c4cc(=O)n(C)n5cc(CC#N)nc45)C[C@H]3CC)cc2s1` (single isomer, unassigned) [Compound A96b], the IC50 was 2080 nM in experiment [1] and 861 nM in experiment [2].
`CC[C@H]1CN(C(C)c2ccc3ncsc3c2)[C@H](CC)CN1c1cc(=O)n(C)n2cc(CC#N)nc12` (single isomer, unassigned) [Compound A53a]: the IC50 in experiment [1] was found to be 11 nM; in experiment [2] it was 4 nM.
Regarding `CC[C@@H]1CN(c2cc(=O)n(C)n3cc(CC#N)nc23)[C@@H](C)CN1C(C)c1ccc(C2CC2)nc1` (single isomer, unassigned) [Compound A43a], the figures for the IC50 in experiment [1] and in experiment [2] were 285 nM and 202 nM, respectively.
As to `[2H]C([2H])([2H])c1nc2ccc(C(C)N3C[C@H](CC)N(c4cc(=O)n(C)n5cc(CC#N)nc45)C[C@H]3CC)cc2s1` (single isomer, unassigned) [Compound A96a], the IC50 in experiment [1] worked out at 54 nM; in experiment [2], 33 nM.
For `CC[C@H]1CN(C(C)c2ccc(C3CC3)nc2)[C@H](CC)CN1c1c(C#N)c(=O)n(C)n2cc(CC#N)nc12` (single isomer, unassigned) [Compound A75a], the IC50 in experiment [1] turned out to be 420 nM; in experiment [2], 276 nM.
Consider `CC(c1ccc2nccnc2c1)N1C[C@H](C)N(c2cc(=O)n(C)n3cc(CO)nc23)C[C@H]1C` (stereo partly drawn) [Compound A3, 8-((2S,5R)-2,5-dimethyl-4-(1-(quinoxalin-6-yl)ethyl)piperazin-1-yl)-2-(hydroxymethyl)-5-methylimidazo[1,2-b]pyridazin-6(5H)-one], for which the IC50 in experiment [1] is 2300 nM; in experiment [2], 9000 nM.
As for `CC[C@@H]1CN(c2c(C#N)c(=O)n(C)n3cc(CC#N)nc23)[C@@H](C)CN1C(C)c1ccc(C2CC2)nc1` (single isomer, unassigned) [Compound A74a], the figures for the IC50 in experiment [1] and in experiment [2] were 682 nM and 166 nM, respectively.
The matching figures for `CCC(c1ccc2nc(C)sc2n1)N1C[C@H](CC)N(c2cc(=O)n(C)n3cc(CC#N)nc23)C[C@H]1CC` (single isomer, unassigned) [Compound A99a]: 196 nM and 132 nM.
On to `CC[C@H]1CN(C(C)c2ccc3scnc3c2)[C@H](CC)CN1c1cc(=O)n(C)n2cc(CC#N)nc12` (single isomer, unassigned) [Compound A65b], for which the IC50 in experiment [1] turned out to be 157 nM; in experiment [2] it was 158 nM.
For `CC[C@H]1CN(C(C)c2ccc3nccnc3c2)[C@H](CC)CN1c1cc(=O)[nH]n2cc(CC#N)nc12` (stereo partly drawn) [Compound A15, 2-(8-((2S,5R)-2,5-diethyl-4-(1-(quinoxalin-6-yl)ethyl)piperazin-1-yl)-6-oxo-5,6-dihydroimidazo[1,2-b]pyridazin-2-yl)acetonitrile], the IC50 in experiment [1] turned out to be 4380 nM; in experiment [2], 3870 nM.
For the compound `CC[C@H]1CN(C(C)c2ccc(C(F)(F)F)cc2)[C@H](CC)CN1c1cc(=O)n(C)n2cc(CC#N)nc12` (single isomer, unassigned) [Compound A91b], the IC50 stood at 319 nM in experiment [1] and 1430 nM in experiment [2].
As for `CC(c1ccc2c(c1)OC(C)(C)CO2)N1C[C@H](C)N(c2c(C#N)c(=O)n(C)n3cc(CC#N)nc23)C[C@H]1C` (single isomer, unassigned) [Compound A27b], the figures for the IC50 in experiment [1] and in experiment [2] were 486 nM and 579 nM, respectively.
For `CCC(c1ccc2nc(C)sc2n1)N1C[C@H](CC)N(c2cc(=O)n(C)n3cc(CC#N)nc23)C[C@H]1C` (single isomer, unassigned) [Compound A98a], the figures for the IC50 in experiment [1] and in experiment [2] were 712 nM and 2940 nM, respectively.
With `CC[C@@H]1CN(c2cc(=O)n(C)n3cc(CC#N)nc23)[C@@H](C)CN1C(C)c1ccc2nccnc2c1` (single isomer, unassigned) [Compound A13a], the values for the IC50 in experiment [1] and in experiment [2] were 966 nM and 16 nM, respectively.
On to `CC[C@@H]1CN(c2cc(=O)n(C)n3cc(CC#N)nc23)[C@@H](COC)CN1C(C)c1ccc2nc(C)sc2n1` (single isomer, unassigned) [Compound A108b], for which the IC50 in experiment [1] was found to be 510 nM; in experiment [2] it was 182 nM.
The matching figures for `CC[C@H]1CN(C(C)c2ccc3ncsc3c2)[C@H](CC)CN1c1cc(=O)n(C)n2cc(CC#N)nc12` (single isomer, unassigned) [Compound A53b]: 235 nM and 215 nM.
The matching figures for `CC[C@@H]1CN(c2cc(=O)n(C)n3cc(CC#N)nc23)[C@@H](C)CN1C(C)c1ccc2cc(F)sc2n1` (stereo partly drawn) [Compound A106, 2-(8-((2S,5R)-5-ethyl-4-(1-(2-fluorothieno[2,3-b]pyridin-6-yl)ethyl)-2-methylpiperazin-1-yl)-5-methyl-6-oxo-5,6-dihydroimidazo[1,2-b]pyridazin-2-yl)acetonitrile]: 26 nM and 96 nM.
`CC[C@H]1CN(C(C)c2ccc3nc(C4CC4)sc3n2)[C@H](CC)CN1c1cc(=O)n(C)n2cc(CC#N)nc12` (single isomer, unassigned) [Compound A109b]: the IC50 in experiment [1] stood at 113 nM; in experiment [2], 28 nM.
As to `CC[C@H]1CN(C(C)c2ccc3nc(C)sc3c2)[C@H](CC)CN1c1cc(=O)n(C)n2cc(C=NOC)nc12` (single isomer, unassigned) [Compound A123a], the IC50 in experiment [1] came out at 269 nM; in experiment [2], 4890 nM.
As to `CC[C@@H]1CN(c2cc(=O)n(C)n3cc(CC#N)nc23)[C@@H](C)CN1C(C)c1cc2sc(C)nc2cc1F` (single isomer, unassigned) [Compound A60b], the IC50 came out at 4410 nM in experiment [1] and 2930 nM in experiment [2].
Take `CCc1nc2ccc(C(C)N3C[C@H](C)N(c4cc(=O)n(C)n5cc(CC#N)nc45)C[C@H]3CC)cc2s1` (single isomer, unassigned) [Compound A101a]: the IC50 in experiment [1] is 851 nM; in experiment [2], 29 nM.
On to `CC(c1ccc2c(c1)OC(C)(C)CO2)N1C[C@H](C)N(c2c(C#N)c(=O)n(C)n3cc(CC#N)nc23)C[C@H]1C` (single isomer, unassigned) [Compound A27a], for which the values for the IC50 in experiment [1] and in experiment [2] were 2250 nM and 3 nM, respectively.
In the case of `CC[C@H]1CN(C(C)c2ccc3cc(F)sc3n2)[C@H](CC)CN1c1cc(=O)n(C)n2cc(CC#N)nc12` (single isomer, unassigned) [Compound A105b], the figures for the IC50 in experiment [1] and in experiment [2] were 3.3 nM and 48 nM, respectively.
With `CC[C@H]1CN(C(C)c2ccc3nc(C)sc3n2)[C@H](CC)CN1c1cc(=O)n(C)n2cc(C=NOC)nc12` (single isomer, unassigned) [Compound A124bc], the IC50 in experiment [1] was determined as 78 nM; in experiment [2], 8100 nM.
In the case of `CC[C@H]1CN(C(C)c2ccc3nc(C)sc3n2)[C@H](C)CN1c1cc(=O)n(C)n2cc(CC#N)nc12` (single isomer, unassigned) [Compound A121b], the IC50 in experiment [1] worked out at 50 nM; in experiment [2] it was 143 nM.
As to `CC[C@H]1CN(C(C)c2ccc3nc(C)sc3n2)[C@H](CC)CN1c1cc(=O)n(C)n2cc(C=NOC)nc12` (single isomer, unassigned) [Compound A124d], the IC50 was 5.9 nM in experiment [1] and 630 nM in experiment [2].
